According to patent US20020037903A1, “Use of pyrimidine endothelin antagonists in companion animals” (priority 2000, published 2002):
Where two headings read alike, the source gives them in different places.

How the values were obtained:
heart disease in dogs = conditions: veterinary clinical trial, dogs with heart disease; cited from earlier work
[1] = Test B(b): plasma protein binding by equilibrium dialysis; type: in vitro ADME; conditions: dog, canine plasma
Text: (b) Determination of plasma protein binding by equilibrium dialysis
An example of a method used is described below.
Plasma containing the test compound was placed in a chamber (half-cell), separated by a semi-permeable membrane (Spectra/Por™ 1 47 mm diam MWCO 6-8000) from isotonic buffer at physiological pH in the other half-cell. The system was allowed to equilibrate, such that low molecular weight compounds distributed evenly between the two chambers (plasma and buffer), whilst high molecular weight molecules were restricted to the plasma chamber. At equilibrium the concentration of the unbound test compound is the same on either side of the membrane. The concentration of total test compound in each half-cell was then determined (using essentially the described above) and the extent of plasma protein binding calculated.
The Spectra/Por™ Equilibrium Dialyzer used to determine protein binding was supplied by NBS Biologicals.

[2] = test system: dog renal artery strips (ET-1-induced contraction); test: Test A: inhibition of contraction induced by ET-1 in dog renal artery strips to generate Kb values; type: cell-based, beagle dogs; conditions: Canis lupus familiaris, 1.25 h, ET-1 contraction, 75 minutes incubation with test compound, single concentration, read-out: Apparent Kb
Text: Inhibition of Contraction Induced by ET-1 in Dog Renal Artery Strips to Generate Kb Values
A Kb value is a measure of functional activity, and this is taken to be the free plasma concentration of a test compound required to provide efficacy.
Renal arteries from beagle dogs (body weight 9-15 kg) were cut into spirals and divided into 5 mm long strips. The side of each strip that was adjacent to the lumen of the vessel was gently rubbed to remove the endothelium. […] The tension generated by each strip was recorded isometrically. After incubating the tissues with test compound for 75 minutes, cumulative concentration response curves were constructed to ET-1 in the presence of 10 μM Bestatin, 10 μM Captopril, 10 μM Thiorphan, 50 μM indomethacin and 0.001% BSA. Only a single ET-1 curve was constructed in each tissue and tension increases expressed as a percentage of the response to 120mM KCl determined before the addition of the test compound. […] This is the ratio of the EC50 in the presence of the test compound divided by the EC50 in its absence. The DR is then put into the following equation:
apparent pKb=log(DR−1)−log[B] (where B=molar concentration of test compound)

[3] = Test B: pharmacokinetic study in the dog, plasma concentrations after i.v. infusion; type: in vivo; conditions: for Estimated % of Kb at 24 hours following 2.0 mg/kg i.v. dose: 0.5 mg/kg value multiplied by 4; for % of Kb at 24 hours following 0.5 mg/kg i.v. dose: free plasma concentration as percentage of Kb from Test A; for concentration at 24 h: plasma, intravenous, 0.5 mg/kg
Protocol: In order to assess the potential of test ET antagonists to provide efficacy, a pharmacokinetic study in the dog was carried out.
Blood samples were taken at various time points and centrifuged to provide plasma samples. These samples were analysed using Mass Spectrometry to provide total plasma concentrations.
Total plasma concentrations in the dog were determined by comparison with the standard line constructed (using the spiked plasma samples) to cover the expected concentration range.
(c) Calculation of free plasma concentrations [formula] or % protein bound=(1−Fu)×100
The free plasma concentrations of the compound can then be determined.
Free plasma concentration=total plasma concentration (from method (a))×fraction unbound (from method (b))

[4] = test system: dogs with pacing-induced CHF; test: Congestive heart failure induced by rapid ventricular pacing in dogs; type: in vivo
Protocol: A group of animals receiving ACE-inhibitor treatment served as positive control.
Heart failure was induced by rapid ventricular pacing, which is a well established and extensively documented model It is the only heart failure model that allows control of the degree of heart failure by adjusting the pacing rate.
Dogs were paced throughout the study at pacing rates up to 220-240 bpm leading to steadily progressing CHF.
Group 1: Placebo (Furosemide 4 mg/kg/day BID per os, n=6)
Group 2: ET-receptor antagonist (2 mg/kg/day SID per os+Furosemide as above, n=6)
Group 3: Enalapril maleate (1 mg/kg/day BID per os+Furosemide as above)
(n=6, positive control) was initiated 2 weeks after start of pacing and continued for 3 weeks.
Throughout the study, both clinical parameters (heart murmurs, edema formation, dyspnoe) as well as haemodynamic (CO, blood pressure, cardiac contractility, and heart rate) and humoral parameters (plasma catecholamines, ANF, ET-1) were measured to determine morbidity and quality of life of the animals.
Dosing of the animals during the 3-week treatment period took place BID@8 am and 4 pm:
Improvement in cardiac function is illustrated by the effect of Compound X on the left ventricular enddiastolic pressure (LVEDP) in resting dogs before and during progressive CHF induced by pacing at […]. Test compounds were given for 3 weeks while pacing continued. In the graph below, the Y-axis is LVEDP in mm, and the X-axis is the time in weeks. […] [In the study, 5 dogs were treated with placebo, 3 dogs were treated with enalapril, and 5 dogs were treated with Compound X] [drawing 5]
Dogs were paced for 2 weeks to develop CHF and then assigned to oral gavage treatment with either placebo (vehicle), Compound X (2 mg/kg/day, sid), or enalapril (1 mg/kg/day, bid). In addition, all animals received the diuretic furosemide (4 mg/kg/day, bid) throughout treatment period. During the 3-week treatment period, rapid ventricular pacing was continued. Pacing led to deterioration of myocardial and circulatory function with progression of CHF as indicated by increases in left ventricular enddiastolic pressure (LVEDP) and reductions of cardiac contractility and output. In addition, all animals were assessed for clinical parameters of CHF by an independent veterinarian.
Throughout the study dogs were studied twice weekly at rest and during standardised exercise on a treadmill at two different speeds.

[5] = test system: ET-1-induced pressor response; test: Test C: inhibition of ET-1-induced pressor response in conscious beagle dogs; type: in vivo
Protocol: Inhibition of ET-1-induced Pressor Response in Conscious Beagle Dogs
Studies were performed in surgically prepared conscious beagle dogs (13-17 kg) which were well adjusted to the laboratory environment. Surgical preparation was performed under recovery anaesthesia to insert an indwelling aortic catheter with external access between the scapulae and protruding subcutaneous ECG studs, positioned for the recording of lead 11 electrocardiograms. During studies dogs were placed, unrestrained, in “Pavlov” type slings. The aortic catheter was connected to a pressure transducer for the measurement of systemic arterial pressure and ECG studs, via patient cables, to a bio-amplifier for the recording of electrocardiograms. ET-1 was administered as a 15 min infusion (25 pmoles/kg/min) via a temporary catheter inserted into the saphenous vein. Test compound or placebo was administered by oral gavage (0.5 or 2.0 mg/kg) at 1 and 24 hours prior to the infusion of ET-1. Individual studies investigated no more than a single dose of test compound or placebo at any one time. Systemic arterial pressure and electrocardiograms were recorded for one hour prior to and one hour after the start of the infusion of ET-1. Test compounds were evaluated by comparing the effects of placebo or test compound on the magnitude of pressor response elicited by ET-1.

ETB receptors = molecular target: T1, ETB receptors (Homo sapiens, UniProt P24530); conditions: in man; cited from earlier work
T1 construct: host or cells: man (in vivo)
T1 sequence (P24530 27-442): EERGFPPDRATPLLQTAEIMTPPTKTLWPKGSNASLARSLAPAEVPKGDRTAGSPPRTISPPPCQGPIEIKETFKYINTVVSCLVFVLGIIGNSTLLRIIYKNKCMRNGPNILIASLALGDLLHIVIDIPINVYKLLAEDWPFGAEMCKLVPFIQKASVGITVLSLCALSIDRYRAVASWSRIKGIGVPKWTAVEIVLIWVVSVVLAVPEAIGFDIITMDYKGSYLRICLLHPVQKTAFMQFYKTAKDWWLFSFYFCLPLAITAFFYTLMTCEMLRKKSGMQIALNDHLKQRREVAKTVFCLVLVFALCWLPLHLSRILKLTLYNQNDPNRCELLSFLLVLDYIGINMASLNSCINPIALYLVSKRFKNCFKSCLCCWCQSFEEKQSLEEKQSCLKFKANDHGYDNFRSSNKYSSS

neointimal formation = conditions: after balloon angioplasty; cited from earlier work
ETA/B receptor = conditions: hypertensive patients; cited from earlier work
[6] = 0.5 mg/kg i.v. infusion over 10 minutes, read-out: Total plasma concentration at 24 hours following 0.5 mg/kg iv dose
[7] = total plasma concentration x fraction unbound, read-out: Free concentration at 24 hours following 0.5 mg/kg i.v. dose
[8] = 2 mg/kg/day sid p.o. plus furosemide, 3 weeks

Row | fraction unbound [1] | Estimated % of Kb at 24 hours following 2.0 mg/kg i.v. dose [3] | % of Kb at 24 hours following 0.5 mg/kg i.v. dose [3] | concentration at 24 h [3, 6] | concentration at 24 h [3, 7] | Structure (SMILES) | Kb [2] | other results
1 | – | – | – | – | – | CCOC(=O)[C@H](CCc1ccccc1)N[C@@H](C)C(=O)N1CCC[C@H]1C(=O)O [enalapril] | – | Cardiac function (heart disease in dogs): did not improve cardiac function; Disease progression (heart disease in dogs): significant slow down in disease progression
2 | 0.032 | 4.8% | 1.2% | 40 nM | 1.3 nM | COc1cc(OC)nc(O[C@H](C(=O)O)C(OC)(c2ccccc2)c2ccccc2)n1 [LU 135,252] | 111 nM | –
3 | – | – | – | – | – | CCCC[C@@H](NC(=O)[C@@H](Cc1cn(C(=O)OC)c2ccccc12)NC(=O)[C@H](CC(C)(C)C)NC(=O)N1[C@H](C)CCC[C@@H]1C)C(=O)O [BQ-788] | – | Effect on peripheral resistance (ETB receptors): increase peripheral resistance
4 | – | – | – | – | – | CCCOc1ccc2c(c1)[C@@H](c1ccc(OC)cc1OCC(=O)O)[C@H](C(=O)O)[C@H]2c1ccc2c(c1)OCO2 [SB-209670] | – | Reduction in neointimal formation relative to control animals (neointimal formation): 50%
5 | 0.12 | <32% | <8% | < 93 nM | < 11 nM | COCCOc1nc(-c2ncccn2)nc(NS(=O)(=O)CCc2ccccc2)c1Oc1ccccc1OC [Example 2, WO 98/57938] | 136 nM | –
6 | – | – | – | – | – | COc1ccccc1Oc1c(NS(=O)(=O)c2ccc(C(C)(C)C)cc2)nc(-c2ncccn2)nc1OCCO [Bosentan] | – | Effect on blood pressure (ETA/B receptor): decreased blood pressure

Row | Structure (SMILES) | fraction unbound [1] | Estimated % of Kb at 24 hours following 2.0 mg/kg i.v. dose [3] | % of Kb at 24 hours following 0.5 mg/kg i.v. dose [3] | concentration at 24 h [3, 6] | concentration at 24 h [3, 7] | Kb [2] | other results
7 | COc1ccccc1Oc1c(NS(=O)(=O)CCc2ccccc2)nc(-c2ncccn2)nc1OC [Compound X, N-[6-methoxy-5-(2-methoxyphenoxy)-2-(2-pyrimidinyl)-4-pyrimidinyl]-2-phenylethansulphonamide] | 0.09 | 196% | 49% | 466 nM | 41.9 nM | 86 nM | Arterial blood pressure (BP) [4, 8]: lower arterial blood pressure; Cardiac output [4, 8]: maintained or even increased cardiac output; LVEDP at rest and during treadmill exercise [4, 8]: significantly improved LVEDP not only under resting conditions but even more so during treadmill exercise; LVEDP relative to pre-treatment values [4, 8]: lowered LVEDP below pre-treatment values; Left ventricular enddiastolic pressure (LVEDP) in resting dogs ([4]; 2 mg/kg/day sid p.o. plus furosemide, 3 weeks, pacing 210-240 bpm, versus placebo and enalapril): Significant improvements over both placebo and enalapril; Exercise tolerance ([4]; all treated animals, placebo group three out of six developed exercise intolerance): maintained exercise tolerance throughout the study; Heart failure class, NYHA scale (I-IV) ([4]; all treated animals, placebo group three out of six reached class III): class II; Change in arterial pressure elicited by ET-1 ([5]; 0.5 mg/kg p.o., 1 hour prior to ET-1 infusion): 3 ΔmmHg; Change in arterial pressure elicited by ET-1 ([5]; 2.0 mg/kg p.o., 24 hours prior to ET-1 infusion): 3 ΔmmHg; inhibition at 0.5 mg/kg ([5]; Canis lupus familiaris, po, 0.5 mg/kg p.o., 1 hour prior to ET-1 infusion): 76%; inhibition at 2 mg/kg ([5]; Canis lupus familiaris, po, 2.0 mg/kg p.o., 24 hours prior to ET-1 infusion): 80%
